According to patent US8030321B2, “Benzofuro- and benzothienopyrimidine modulators of the histamine H4 receptor” (Janssen Pharmaceutica, NV, priority 2006, dated 2011):
Where a name gives a salt, the structure may show the parent alone.

Biological target: T1, human histamine H4 receptor (Homo sapiens, UniProt Q9H3N8)
T1 construct: expressed in transfected cells; host or cells: SK-N-MC cells or COS7 cells, transiently transfected; cell membranes used
Experiment: Binding Assay on Recombinant Human Histamine H4 Receptor
Settings: competition binding with 3H-histamine (5 nM), membranes of SK-N-MC or COS7 cells expressing human H4 receptor; Cheng-Prusoff, KD 5 nM; average of results obtained; read-out: Ki
Outline: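 Membranes from SK-N-MC or COS7 cells transiently transfected with human H4 receptor were incubated with ³H-histamine (5-70 nM); nonspecific binding defined with 10,000 nM histamine. Bound radioactivity collected by GF/C filtration and scintillation counting; test compounds assessed by displacement of ³H-ligand binding across concentrations.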

| Ki [µM] | SMILES |
| --- | --- |
| 0.35 | CN1CCN(c2nc(NC3CC3)nc3c2oc2ccc(Cl)cc23)CC1 [Example 119, [8-Chloro-4-(4-methyl-piperazin-1-yl)-benzo[4,5]furo[3,2-d]pyrimidin-2-yl]-cyclopropyl-amine] |
| 3.33 | CC(C)CNc1nc(N2CCN(C)CC2)c2oc3ccc(Cl)cc3c2n1 [Example 120, [8-Chloro-4-(4-methyl-piperazin-1-yl)-benzo[4,5]furo[3,2-d]pyrimidin-2-yl]-isobutyl-amine] |
| 0.22 | C=CCNc1nc(N2CCN(C)CC2)c2oc3ccc(Cl)cc3c2n1 [Example 121, Allyl-[8-chloro-4-(4-methyl-piperazin-1-yl)-benzo[4,5]furo[3,2-d]pyrimidin-2-yl]-amine] |
| 0.3 | CN1CCN(c2nc(NCCCN)nc3c2oc2ccc(Cl)cc23)CC1 [Example 122, N^1-[8-Chloro-4-(4-methyl-piperazin-1-yl)-benzo[4,5]furo[3,2-d]pyrimidin-2-yl]-propane-1,3-diamine] |
| 0.52 | CSCCNc1nc(N2CCN(C)CC2)c2oc3ccc(Cl)cc3c2n1 [Example 123, [8-Chloro-4-(4-methyl-piperazin-1-yl)-benzo[4,5]furo[3,2-d]pyrimidin-2-yl]-(2-methylsulfanyl-ethyl)-amine] |
| 0.097 | CNc1nc(N2CCN(C)CC2)c2oc3ccc(Cl)cc3c2n1 [Example 124, [8-Chloro-4-(4-methyl-piperazin-1-yl)-benzo[4,5]furo[3,2-d]pyrimidin-2-yl]-methyl-amine] |
| 0.58 | OCCNc1nc(N2C[C@@H]3C[C@H]2CN3)c2oc3ccc(Cl)cc3c2n1 [Example 125, (S,S)-2-[8-Chloro-4-(2,5-diaza-bicyclo[2.2.1]hept-2-yl)-benzo[4,5]furo[3,2-d]pyrimidin-2-ylamino]-ethanol] |
| 0.21 | CNC1CCN(c2nc(NCCO)nc3c2oc2ccc(Cl)cc23)C1 (stereo not shown) [Example 126, 2-[8-Chloro-4-(3-methylamino-pyrrolidin-1-yl)-benzo[4,5]furo[3,2-d]pyrimidin-2-ylamino]-ethanol] |
| 0.26 | CN1CCCN(c2nc(NCCO)nc3c2oc2ccc(Cl)cc23)CC1 [Example 127, 2-[8-Chloro-4-(4-methyl-[1,4]diazepan-1-yl)-benzo[4,5]furo[3,2-d]pyrimidin-2-ylamino]-ethanol] |
| 0.019 | Nc1nc(N2CC(N)C2)c2oc3ccc(Cl)cc3c2n1 [Example 129, 4-(3-Amino-azetidin-1-yl)-8-chloro-benzo[4,5]furo[3,2-d]pyrimidin-2-ylamine trifluoroacetic acid salt] |
| 0.14 | C[C@@H]1CN(c2nc(N)nc3c2oc2ccc(Cl)cc23)[C@@H](C)CN1 [Example 130, (2S,5R)-8-Chloro-4-(2,5-dimethyl-piperazin-1-yl)-benzo[4,5]furo[3,2-d]pyrimidin-2-ylamine trifluoroacetic acid salt] |
| 0.06 | C[C@H]1CNCCN1c1nc(N)nc2c1oc1ccc(Cl)cc12 [Example 131, (S)-8-Chloro-4-(2-methyl-piperazin-1-yl)-benzo[4,5]furo[3,2-d]pyrimidin-2-ylamine trifluoroacetic acid salt] |
| 0.12 | C[C@@H]1CNCCN1c1nc(N)nc2c1oc1ccc(Cl)cc12 [Example 132, (R)-8-Chloro-4-(2-methyl-piperazin-1-yl)-benzo[4,5]furo[3,2-d]pyrimidin-2-ylamine trifluoroacetic acid salt] |
| 0.0057 | C[C@H]1CN(c2nc(N)nc3c2oc2ccc(Cl)cc23)CCN1 [Example 133, (S)-8-Chloro-4-(5-methyl-piperazin-1-yl)-benzo[4,5]furo[3,2-d]pyrimidin-2-ylamine trifluoroacetic acid salt] |
| 0.05 | C[C@@H]1CN(c2nc(N)nc3c2oc2ccc(Cl)cc23)CCN1 [Example 134, (R)-8-Chloro-4-(5-methyl-piperazin-1-yl)-benzo[4,5]furo[3,2-d]pyrimidin-2-ylamine trifluoroacetic acid salt] |
| 0.021 | CN1CCN(c2nc(N)nc3c2oc2cccc(F)c23)CC1 [Example 135, 9-Fluoro-4-(4-methyl-piperazin-1-yl)-benzo[4,5]furo[3,2-d]pyrimidin-2-ylamine trifluoroacetic acid salt] |
| 0.01 | CN[C@@H]1CCN(c2nc(N)nc3c2oc2cccc(F)c23)C1 [Example 136, (R)-9-Fluoro-4-(3-methylamino-pyrrolidin-1-yl)-benzo[4,5]furo[3,2-d]pyrimidin-2-ylamine trifluoroacetic acid salt] |
| 0.15 | Nc1nc(N2CCNCC2)c2oc3cccc(F)c3c2n1 [Example 137, 9-Fluoro-4-piperazin-1-yl-benzo[4,5]furo[3,2-d]pyrimidin-2-ylamine trifluoroacetic acid salt] |

| Ki [µM] | SMILES |
| --- | --- |
| > 10 | Nc1nc(N2CC(N)C2)c2oc3cccc(F)c3c2n1 [Example 138, 4-(3-Amino-azetidin-1-yl)-9-fluoro-benzo[4,5]furo[3,2-d]pyrimidin-2-ylamine trifluoroacetic acid salt] |
| 0.0008 | CN1CCN(c2nc(N)nc3c2oc2ccc(C(F)(F)F)cc23)CC1 [Example 139, 4-(4-Methyl-piperazin-1-yl)-8-trifluoromethyl-benzo[4,5]furo[3,2-d]pyrimidin-2-ylamine trifluoroacetic acid salt] |
| 0.001 | CN[C@@H]1CCN(c2nc(N)nc3c2oc2ccc(C(F)(F)F)cc23)C1 [Example 140, (R)-4-(3-Methylamino-pyrrolidin-1-yl)-8-trifluoromethyl-benzo[4,5]furo[3,2-d]pyrimidin-2-ylamine trifluoroacetic acid salt] |
| 0.043 | Nc1nc(N2CCC[C@H](N)C2)c2oc3ccc(C(F)(F)F)cc3c2n1 [Example 141, (S)-4-(3-Amino-piperidin-1-yl)-8-trifluoromethyl-benzo[4,5]furo[3,2-d]pyrimidin-2-ylamine trifluoroacetic acid salt] |
| 0.013 | Nc1nc(N2CCNCC2)c2oc3ccc(C(F)(F)F)cc3c2n1 [Example 142, 4-piperazin-1-yl-8-trifluoromethyl-benzo[4,5]furo[3,2-d]pyrimidin-2-ylamine trifluoroacetic acid salt] |
| 0.27 | Nc1nc(N2C[C@@H]3C[C@H]2CN3)c2oc3ccc(C(F)(F)F)cc3c2n1 [Example 143, (S,S)-4-(2,5-Diaza-bicyclo[2.2.1]hept-2-yl)-8-trifluoromethyl-benzo[4,5]furo[3,2-d]pyrimidin-2-ylamine citrate salt] |
| > 10 | Nc1nc(N2CC(N)C2)c2oc3ccc(C(F)(F)F)cc3c2n1 [Example 144, 4-(3-Amino-azetidin-1-yl)-8-trifluoromethyl-benzo[4,5]furo[3,2-d]pyrimidin-2-ylamine] |
| 0.16 | CN1CCN(c2nc(N)nc3c2oc2ccc(F)c(F)c23)CC1 [Example 145, 8,9-Difluoro-4-(4-methyl-piperazin-1-yl)-benzo[4,5]furo[3,2-d]pyrimidin-2-ylamine trifluoroacetic acid salt] |
| 1.28 | Nc1nc(N2CCNCC2)c2oc3ccc(F)c(F)c3c2n1 [Example 146, 8,9-Difluoro-4-piperazin-1-yl-benzo[4,5]furo[3,2-d]pyrimidin-2-ylamine trifluoroacetic acid salt] |
| > 10 | Nc1nc(N2CCC[C@H](N)C2)c2oc3ccc(F)c(F)c3c2n1 [Example 147, (S)-4-(3-Amino-piperidin-1-yl)-8,9-difluoro-benzo[4,5]furo[3,2-d]pyrimidin-2-ylamine trifluoroacetic acid salt] |
| 0.039 | CN[C@@H]1CCN(c2nc(N)nc3c2oc2ccc(F)c(F)c23)C1 [Example 148, (R)-8,9-Difluoro-4-(3-methylamino-pyrrolidin-1-yl)-benzo[4,5]furo[3,2-d]pyrimidin-2-ylamine trifluoroacetic acid salt] |
| 5.38 | Nc1nc(N2CC(N)C2)c2oc3ccc(F)c(F)c3c2n1 [Example 150, 4-(3-Amino-azetidin-1-yl)-8,9-difluoro-benzo[4,5]furo[3,2-d]pyrimidin-2-ylamine trifluoroacetic acid salt] |
| 0.074 | CN1CCN(c2nc(N)nc3c2oc2cccc(Cl)c23)CC1 [Example 151, 9-Chloro-4-(4-methyl-piperazin-1-yl)-benzo[4,5]furo[3,2-d]pyrimidin-2-ylamine trifluoroacetic acid salt] |
| 0.087 | CN[C@@H]1CCN(c2nc(N)nc3c2oc2cccc(Cl)c23)C1 [Example 152, (R)-9-Chloro-4-(3-methylamino-pyrrolidin-1-yl)-benzo[4,5]furo[3,2-d]pyrimidin-2-ylamine trifluoroacetic acid salt] |
| 1.03 | Nc1nc(N2CCNCC2)c2oc3cccc(Cl)c3c2n1 [Example 153, 9-Chloro-4-piperazin-1-yl-benzo[4,5]furo[3,2-d]pyrimidin-2-ylamine trifluoroacetic acid salt] |
| > 10 | Nc1nc(N2CCC[C@H](N)C2)c2oc3cccc(Cl)c3c2n1 [Example 154, (S)-4-(3-Amino-piperidin-1-yl)-9-chloro-benzo[4,5]furo[3,2-d]pyrimidin-2-ylamine trifluoroacetic acid salt] |
| > 10 | Nc1nc(N2CC(N)C2)c2oc3cccc(Cl)c3c2n1 [Example 156, 4-(3-Amino-azetidin-1-yl)-9-chloro-benzo[4,5]furo[3,2-d]pyrimidin-2-ylamine trifluoroacetic acid salt] |

| SMILES | Ki [µM] |
| --- | --- |
| Nc1nc(N2C[C@@H]3C[C@H]2CN3)c2oc3ccc(F)c(F)c3c2n1 [Example 149, (S,S)-4-(2,5-Diaza-bicyclo[2.2.1]hept-2-yl)-8,9-difluoro-benzo[4,5]furo[3,2-d]pyrimidin-2-ylamine trifluoroacetic acid salt] | > 10 |
| Nc1nc(N2C[C@@H]3C[C@H]2CN3)c2oc3cccc(Cl)c3c2n1 [Example 155, (S,S)-9-Chloro-4-(2,5-diaza-bicyclo[2.2.1]hept-2-yl)-benzo[4,5]furo[3,2-d]pyrimidin-2-ylamine trifluoroacetic acid salt] | 0.46 |
